Laboratory results reported in patent publication US9783524B2, “Protein tyrosine kinase modulators and methods of use” (BETTA PHARMACEUTICALS CO., LTD., priority 2013, dated 2017).
Like-named read-outs stand apart in the source and are kept apart here.

Experiments:
Type in all cases: biochemical, human
EGFR (T790M) (h) = system: EGFR (T790M) (h)
Description: (§1) Assay conditions included 10 μM ATP and 100 nM test compounds.
(§2) All reactions are initiated by the addition of the MgATP mix. After incubation for 40 minutes at room temperature, the reaction is stopped by the addition of 3% phosphoric acid solution. 10 μL of the reaction is then spotted onto a P30 filtermat and washed three times for 5 minutes in 75 mM phosphoric acid and once in methanol prior to drying and scintillation counting. This assay is performed by Millipore. The experiment is carried out in duplicate. The value for the control sample (DMSO) was set to 100%, and the values for the compound-treated samples were expressed as activity relative to the control sample.

EGFR (L858R) (h) = system: EGFR (L858R) (h)
Description: as §1
(§3) All reactions are initiated by the addition of the MgATP mix. After incubation for 40 minutes at room temperature, the reaction is stopped by the addition of 3% phosphoric acid solution. 10 μL of the reaction is then spotted onto a P30 filtermat and washed three times for 5 minutes in 75 mM phosphoric acid and once in methanol prior to drying and scintillation counting. […] The experiment is carried out in duplicate. The value for the control sample (DMSO) was set to 100%, and the values for the compound-treated samples were expressed as activity relative to the control sample.
(§4) (specific activity approx. 500 cpm/pmol, concentration as required) and 0.1 μM test compound.

EGFR (h) = system: EGFR (h)
Description: as §1, §3, §4

EGFR (T790M, L858R) (h) = system: EGFR (T790M, L858R) (h)
Description: as §1, §3, §4

ALK (h) = system: ALK (h)
Description: as §1, §2

[1] = 0.1 μM test compound, 10 μM ATP, remaining activity relative to DMSO control = 100%

Row | SMILES | Activity (control) % EGFR (T790M) (h) (EGFR (T790M) (h)) [%] | Activity (control) % EGFR (L858R) (h) (EGFR (L858R) (h)) [%] | Activity (control) % EGFR (h) (EGFR (h)) [%] | Activity (control) % EGFR (T790M, L858R) (h) (EGFR (T790M, L858R) (h)) [%] | Activity (control) % ALK (h) (ALK (h); [1]) [%] | Activity (control) % EGFR (T790M) (h) (EGFR (T790M) (h); [1]) [%] | Activity (control) % EGFR (T790M, L858R) (h) (EGFR (T790M, L858R) (h); [1]) [%] | Activity (control) % EGFR (L858R) (h) (EGFR (L858R) (h); [1]) [%] | Activity (control) % ALK (h) (ALK (h)) [%] | Activity (control) % EGFR (h) (EGFR (h); [1]) [%]
1 | C=CC(=O)Nc1cccc(Nc2nc(Nc3ccc(N4CCN(C(C)=O)CC4)cc3OC)ncc2C(F)(F)F)c1 [CO-1686, reference compound] | 21 | 97 | 92 | 7 |  |  |  |  |  | 
2 | COc1cc(N2CCC(N(C)C)CC2)ccc1Nc1ncc(Cl)c(Nc2ccccc2C(=O)C(N)=O)n1 [Example 4, 2-(2-(5-chloro-2-(4-(4-(dimethylamino)piperidin-1-yl)-2-methoxyphenylamino)pyrimidin-4-ylamino)phenyl)-2-oxoacetamide] | 4 | 8 | 65 | 2 | 8 |  |  |  |  | 
3 | C=CC(=O)Nc1cccc(Nc2ncc(Cl)c(Nc3ccccc3C(=O)C(=O)N(C)C)n2)c1 [Example 40, N-(3-(5-chloro-4-(2-(2-(dimethylamino)-2-oxoacetyl)phenylamino)pyrimidin-2-ylamino)phenyl)acrylamide] |  |  |  |  | 28 | 79 | 24 |  |  | 
4 | COc1cc(N2CCN(C(C)=O)CC2)ccc1Nc1ncc(Cl)c(Nc2ccccc2C(=O)C(=O)N(C)C)n1 [Example 53, 2-(2-(2-(4-(4-acetylpiperazin-1-yl)-2-methoxyphenylamino)-5-chloropyrimidin-4-ylamino)phenyl)-N,N-dimethyl-2-oxoacetamide] |  |  |  |  |  | 21 | 4 | 60 |  | 
5 | COc1cc(Nc2ncc(Cl)c(Nc3ccccc3C(=O)C(=O)N(C)C)n2)ccc1N1CCN(C)CC1 [Example 61, 2-(2-(5-chloro-2-(3-methoxy-4-(4-methylpiperazin-1-yl)phenylamino)pyrimidin-4-ylamino)phenyl)-N,N-dimethyl-2-oxoacetamide] | 54 | 70 |  | 13 |  |  |  |  | 5 | 
6 | C=CC(=O)Nc1cc(Nc2ncc(Cl)c(Nc3ccccc3C(=O)C(=O)NC)n2)ccc1OC [Example 64, N-(5-(5-chloro-4-(2-(2-(methylamino)-2-oxoacetyl)phenylamino)pyrimidin-2-ylamino)-2-methoxyphenyl)acrylamide] |  |  |  |  | 47 | 79 | 39 | 100 |  | 
7 | COc1ccc(NC(=O)/C=C/CN2CCCCC2)cc1Nc1ncc(Cl)c(Nc2ccccc2C(=O)C(=O)N(C)C)n1 [Example 72, (E)-N-(3-(5-chloro-4-(2-(2-(dimethylamino)-2-oxoacetyl)phenylamino)pyrimidin-2-ylamino)-4-methoxyphenyl)-4-(piperidin-1-yl)but-2-enamide] |  |  |  |  | 14 | 54 | 9 | 28 |  | 
8 | C=C(CN1CCCCC1)C(=O)Nc1ccc(OC)c(Nc2ncc(Cl)c(Nc3ccccc3C(=O)C(=O)N(C)C)n2)c1 [Example 73, N-(3-(5-chloro-4-(2-(2-(dimethylamino)-2-oxoacetyl)phenylamino)pyrimidin-2-ylamino)-4-methoxyphenyl)-2-(piperidin-1-ylmethyl)acrylamide] |  |  |  |  | 17 | 3 | 3 | 37 |  | 67
9 | C=C(CN(C)C)C(=O)Nc1ccc(OC)c(Nc2ncc(Cl)c(Nc3ccccc3C(=O)C(=O)N(C)C)n2)c1 [Example 78, N-(3-(5-chloro-4-(2-(2-(dimethylamino)-2-oxoacetyl)phenylamino)pyrimidin-2-ylamino)-4-methoxyphenyl)-2-((dimethylamino)methyl)acrylamide] |  |  |  |  | 36 | 2 | 3 | 37 |  | 68
10 | COc1ccc(NC(=O)/C=C/CN(C)C)cc1Nc1ncc(Cl)c(Nc2ccccc2C(=O)C(=O)N(C)C)n1 [Example 80, (E)-N-(3-(5-chloro-4-(2-(2-(dimethylamino)-2-oxoacetyl)phenylamino)pyrimidin-2-ylamino)-4-methoxyphenyl)-4-(dimethylamino)but-2-enamide] |  |  |  |  | 10 | 42 | 7 | 43 |  | 
11 | C=CC(=O)N1CCOc2ccc(Nc3ncc(Cl)c(Nc4ccccc4C(=O)C(=O)N(C)C)n3)cc21 [Example 87, 2-(2-(2-(4-acryloyl-3,4-dihydro-2H-benzo[b][1,4]oxazin-6-ylamino)-5-chloropyrimidin-4-ylamino)phenyl)-N,N-dimethyl-2-oxoacetamide] |  |  |  |  |  |  |  |  | 5 | 
12 | C=CC(=O)Nc1cc(Nc2ncc(Cl)c(Nc3ccccc3C(=O)C(=O)N(C)C)n2)ccc1N1CCN(C)CC1 [Example 111, N-(5-(5-chloro-4-(2-(2-(dimethylamino)-2-oxoacetyl)phenylamino)pyrimidin-2-ylamino)-2-(4-methylpiperazin-1-yl)phenyl)acrylamide] |  |  |  |  | 8 | 59 | 11 | 76 |  | 
13 | C=CC(=O)Nc1cc(Nc2ncc(Cl)c(Nc3ccccc3C(=O)C(=O)N(C)C)n2)ccc1OCCN(C)C [Example 115, N-(5-(5-chloro-4-(2-(2-(dimethylamino)-2-oxoacetyl)phenylamino)pyrimidin-2-ylamino)-2-(2-(dimethylamino)ethoxy)phenyl)acrylamide] |  |  |  |  | 6 |  |  |  |  | 
14 | COc1cc(Nc2ncc(Cl)c(Nc3ccccc3C(=O)C(=O)N(C)C)n2)ccc1N1CCOCC1 [Example 117, 2-(2-(5-chloro-2-(3-methoxy-4-morpholinophenylamino)pyrimidin-4-ylamino)phenyl)-N,N-dimethyl-2-oxoacetamide] |  |  |  |  | 8 | 65 | 14 | 88 |  | 
15 | CCC(=O)Nc1cc(Nc2ncc(Cl)c(Nc3ccccc3C(=O)C(=O)N(C)C)n2)ccc1OCCN(C)C [Example 120, N-(5-(5-chloro-4-(2-(2-(dimethylamino)-2-oxoacetyl)phenylamino)pyrimidin-2-ylamino)-2-(2-(dimethylamino)ethoxy)phenyl)propionamide] |  |  |  |  | 8 | 62 | 14 | 76 |  | 
16 | CN(C)C(=O)C(=O)c1ccccc1Nc1nc(Nc2ccc(F)c(NC(=O)CCN3CCOCC3)c2)ncc1Cl [Example 123, N-(5-(5-chloro-4-(2-(2-(dimethylamino)-2-oxoacetyl)phenylamino)pyrimidin-2-ylamino)-2-fluorophenyl)-3-morpholinopropanamide] |  |  |  |  | 17 | 84 | 31 | 94 |  | 
17 | C=C(CN(C)CCN(C)C)C(=O)Nc1cccc(Nc2ncc(Cl)c(Nc3ccccc3C(=O)C(=O)N(C)C)n2)c1 [Example 125, N-(3-(5-chloro-4-(2-(2-(dimethylamino)-2-oxoacetyl)phenylamino)pyrimidin-2-ylamino)phenyl)-2-(((2-(dimethylamino)ethyl)(methyl)amino)methyl)acrylamide] |  |  |  |  | 20 | 18 | 2 | 54 |  | 
18 | C=C(CN1CCCCC1)C(=O)Nc1cc(Nc2ncc(Cl)c(Nc3ccccc3C(=O)C(=O)N(C)C)n2)ccc1N1CCOCC1 [Example 129, N-(5-(5-chloro-4-(2-(2-(dimethylamino)-2-oxoacetyl)phenylamino)pyrimidin-2-ylamino)-2-morpholinophenyl)-2-(piperidin-1-ylmethyl)acrylamide] |  |  |  |  | 8 | 24 | 3 | 75 |  | 
19 | CCN(CC)C(=O)C(=O)c1ccccc1Nc1nc(Nc2ccc(N3CCN(C)CC3)c(OC)c2)ncc1Cl [Example 130, 2-(2-(5-chloro-2-(3-methoxy-4-(4-methylpiperazin-1-yl)phenylamino)pyrimidin-4-ylamino)phenyl)-N,N-diethyl-2-oxoacetamide] |  |  |  |  | 13 | 84 | 22 | 98 |  | 
20 | C=CC(=O)Nc1ccc(OC)c(Nc2ncc(Cl)c(Nc3ccccc3C(=O)C(=O)N(CC)CC)n2)c1 [Example 131, N-(3-(5-chloro-4-(2-(2-(diethylamino)-2-oxoacetyl)phenylamino)pyrimidin-2-ylamino)-4-methoxyphenyl)acrylamide] |  |  |  |  | 9 | 82 | 27 |  |  | 
21 | C=CC(=O)Nc1cc(Nc2ncc(Cl)c(Nc3ccccc3C(=O)C(=O)N(CC)CC)n2)ccc1OC [Example 132, N-(5-(5-chloro-4-(2-(2-(diethylamino)-2-oxoacetyl)phenylamino)pyrimidin-2-ylamino)-2-methoxyphenyl)acrylamide] |  |  |  |  | 16 | 77 | 30 |  |  | 
22 | C=CC(=O)Nc1ccc(N2CCN(C)CC2)c(Nc2ncc(Cl)c(Nc3ccccc3C(=O)C(=O)N(C)C)n2)c1 [Example 135, N-(3-(5-chloro-4-(2-(2-(dimethylamino)-2-oxoacetyl)phenylamino)pyrimidin-2-ylamino)-4-(4-methylpiperazin-1-yl)phenyl)acrylamide] |  |  |  |  | 80 | 96 | 95 |  |  | 
